Data reported in patent US9635855B2, “Polyelectrolyte complexes for biocide enhancement” (priority 2012, dated 2017).

System: Botrytis cinerea
Test: Botrytis cinerea fruit rot on wounded apple, post-harvest spray (Example 2)
Type: in vivo

## C[C@@H]1C/C=C/C=C/C=C/C=C/[C@H](O[C@@H]2O[C@H](C)[C@@H](O)[C@H](N)[C@@H]2O)C[C@@H]2O[C@](O)(C[C@@H](O)C[C@H]3O[C@@H]3/C=C/C(=O)O1)C[C@H](O)[C@H]2C(=O)O [natamycin]
Five and six days after inoculation
  Rot on apples, comparison in words: clearly lower
Two days after inoculation
  Botrytis fruit rot symptoms (in words): did not show any symptoms
